Source: a melting point compilation (Tetko et al.; mined from patent text by program, amines drawn as free bases though some values may be those of a salt)

Compared with `CS(=O)(=O)c1ccc(-c2cnn(-c3cccs3)c(=O)c2-c2ccc(F)cc2)cc1`, `CS(=O)(=O)c1ccc(-c2cnn(-c3ccc(F)cc3)c(=O)c2S(=O)(=O)c2ccccc2)cc1` is lower in melting point: 215 to 217 °C for the first, 203 to 204 °C for the second.

First: OC(CCl)CNC(c1ccccc1)c1ccccc1 (stereo unspecified)
Second: O=C(CNC(=O)C(Cc1ccccc1)CP(=O)(O)O)OCc1ccccc1 (stereo unspecified)
The melting point of the first is lower: 66 to 68 °C for the first, 250 °C for the second.

Compared with `CC(=O)NC[C@H]1CN(c2ccc(N3CCC4(CC3)C[C@@H]4C#N)c(F)c2)C(=O)O1`, `CC(C)(C)OC(=O)NC12CCC1CN(c1c(F)cc3c(=O)c(C(=O)O)cn(C4CC4)c3c1Cl)C2` (stereo unspecified) is higher in melting point: 156 °C for the first, 200 to 202 °C for the second.

First: CSc1ccc(C(=O)Nc2c(Cl)cncc2Cl)cc1OC1CCCC1
Second: COc1ccc(/C=N/Nc2nccc(C(F)(F)F)n2)cc1OC1CCCC1
The melting point of the first is higher: 157 to 159 °C for the first, 73 to 75 °C for the second.

`CCCCCCCCCCCCCCCCCNC(=O)N(C)CC(O)C(O)C(O)C(O)CO` (stereo unspecified) and `CCCCCCCCCCCCCCCCS(=O)(=O)Nc1cccc(C(C)=O)c1` cannot be ordered by melting point: 94 to 96 °C for the first, 95.5 to 100 °C for the second.

First: Clc1ccccc1-c1nc(-c2ccccc2)c(-c2ccccc2)n1Br
Second: C=CCOc1ccc(F)cc1-c1ccccc1-c1ccccc1
The melting point of the first is higher: 103 to 105 °C for the first, 48 to 49 °C for the second.

First: C/C(=C\c1ccc(CO)cc1)c1ccc2c(c1)C(C)(C)CCC2(C)C
Second: Cc1cc2c(cc1-c1cccc(C=O)c1)C(C)(C)CCC2(C)C
The melting point of the first is higher: 123 to 124 °C for the first, 104 to 105 °C for the second.

Compared with `CCOc1cc(C(C#N)N2C(=O)c3cccc(NC(C)=O)c3C2=O)ccc1OC` (stereo unspecified), `CC(C(=O)C(N)=O)c1ccc(N2Cc3ccccc3C2=O)cc1` (stereo unspecified) is higher in melting point: 118 to 120 °C for the first, 220 to 222 °C for the second.

Compared with `CN1CC(c2cccc(C(F)(F)F)c2)C(=O)C(c2ccccc2Cl)C1` (stereo unspecified), `Cc1ccc(S(=O)(=O)Cc2cccc(C(F)(F)F)c2)cc1` is higher in melting point: 90 to 92 °C for the first, 139 to 140 °C for the second.

First: CC(=O)OC1CSC(Oc2cncc(-c3cc4ccccc4o3)c2)C(OC(C)=O)C1OC(C)=O (stereo unspecified)
Second: CCOC(=O)C1=C(C)NC(C)=C(C(=O)OCC)C1c1ccccc1/C=C/C(=O)OC1CCCCC1C (stereo unspecified)
The melting point of the first is lower: 125 °C for the first, 165 to 166 °C for the second.

First: CCN1CC(=O)c2ccc3ccccc3c2S1(=O)=O
Second: O=C1CSCc2cc(-c3ccccc3)ccc21
The melting point of the first is higher: 146 to 147 °C for the first, 87 to 89 °C for the second.

`CCCCn1c(=O)[nH]c(=O)c2c3n(nc21)CCN3` and `Cc1nc(N2CCc3nc(N)sc3CC2)c([N+](=O)[O-])c(=O)[nH]1` cannot be ordered by melting point: 239 to 240 °C for the first, over 200 °C for the second.

First: CC1=NNC(=O)C1(C)Cl (stereo unspecified)
Second: Cc1c(Br)ccc(S(C)(=O)=O)c1C1=NOC(CCl)(CCl)C1
The melting point of the first is lower: 56 °C for the first, 144 to 145 °C for the second.

First: C[C@]12CC(I)C(=O)C=C1CC[C@@H]1[C@@H]2CC[C@]2(C)C(=O)CC[C@@H]12 (stereo partly specified)
Second: CC12C=CC(=O)C(N)=C1C=CC1C2CCC2(C)C(=O)CCC12 (stereo unspecified)
The melting point of the first is lower: 92 °C for the first, 206 to 208 °C for the second.

Compared with `O=CNCC1CC2C3CC4C2C4C13` (stereo unspecified), `CN(C)c1nnc(SCC(=O)C23CC4CC(CC(C4)C2)C3)s1` is lower in melting point: 225 to 226 °C for the first, 150 to 151 °C for the second.

Compared with `CN(CC(N)=O)C(=O)CCl`, `CCOC(=O)CNc1cc(F)ccc1C(=O)O` is higher in melting point: 85 to 86 °C for the first, 123 to 125 °C for the second.

First: CC1(C)CCc2c(N3CCOCC3)nc3sc4c(NCc5cccc6ccccc56)ncnc4c3c2C1
Second: COc1ccc(N2CCN(c3c(C)c(C)c4c(c3C)C(NCc3ccccc3)C(C)(C)O4)CC2)cc1 (stereo unspecified)
The melting point of the first is higher: 266 to 267 °C for the first, 93 to 95 °C for the second.

First: Fc1ccc2[nH]cc(C3=CCN(CC4COc5ccc6[nH]ccc6c5O4)CC3)c2c1 (stereo unspecified)
Second: O=C(c1ccco1)N1CCN(Cc2ccc(-c3cc4ncnc(Nc5ccc6[nH]ccc6c5)c4s3)cc2)CC1
The melting point of the first is lower: 112 °C for the first, 167 to 174 °C for the second.

First: CC1CC(=O)CCC1c1ccccc1 (stereo unspecified)
Second: O=C(CC1CCCCC1)N(O)Cc1ccccc1
The melting point of the first is lower: 71.5 to 72.5 °C for the first, 83 to 85 °C for the second.

First: O=C(Nc1ncc(C(F)(F)F)o1)C1c2ccccc2Oc2c(F)cccc21 (racemic)
Second: COc1ccc2c(n1)C1(CO2)C(=O)N(Cc2ccc(C(F)(F)F)o2)c2ccc(F)cc21 (stereo unspecified)
The melting point of the first is higher: 228 °C for the first, 158 to 160 °C for the second.

First: O=C(O)CNc1ccco1
Second: COc1cc(CCCC(=O)O)ccc1C
The melting point of the first is higher: 195 to 199 °C for the first, 69 to 70 °C for the second.

First: COc1ccc2cc([C@H](C)C(=O)NNC(=O)CCCO[N+](=O)[O-])ccc2c1
Second: C=C(NC(=O)OC(C)(C)C)C(=O)OCc1ccc([N+](=O)[O-])cc1
The melting point of the first is higher: 117 to 119 °C for the first, 94 to 95 °C for the second.

First: CCC(=O)Nc1nc(CC(=O)Nc2nnc(C(C)(C)C)s2)cs1
Second: CC(C)c1cc(C(=O)Nc2ccc(C(=O)O)nc2)oc1C(C)C
The melting point of the first is higher: 210 to 212 °C for the first, 106 to 108 °C for the second.

First: CCCCc1nc(CO)c(C(=O)NCC(=O)O)n1Cc1ccc(-c2ccccc2C(=O)O)cc1
Second: CCNC(=S)Nc1cccc(C(=O)OCC)c1NCc1ccc(-c2ccccc2C#N)cc1
The melting point of the first is higher: over 110 °C for the first, 108 to 110 °C for the second.

First: Cc1ccc(=NS(=O)(=O)C(F)(F)F)n(-c2cccc(C(F)(F)F)c2)c1
Second: Cc1ccc(-c2ccccc2C(=O)NC(C)(C)C)cc1
The melting point of the first is higher: 206 °C for the first, 105 to 106 °C for the second.

Compared with `c1ccc(C(=C2CCN(CCN3CCNCC3)CC2)c2ccccc2)cc1`, `CS(=O)(=O)Nc1nn(CCN2CCCCC2)cc1-c1ccccc1` is higher in melting point: 73 to 75 °C for the first, 121 °C for the second.

First: Cc1cc(Br)n2ccnc2c1
Second: Cc1cnc2cc(N)ccc2n1
The melting point of the first is lower: 53 to 54 °C for the first, 163 to 164 °C for the second.

Compared with `CCOC(=O)C1=CC2(CCC1S(=O)(=O)Nc1ccc(F)cc1Cl)OCCO2` (stereo unspecified), `CN1CCCC1CNC(=O)c1cc(S(=O)(=O)N(C)C)cc2c1OCCO2` (stereo unspecified) is higher in melting point: 117 to 119 °C for the first, 165 to 166 °C for the second.

First: CCC(O)(CCCCO)C(=O)Nc1ccnc(Br)c1 (stereo unspecified)
Second: CCOc1cc(OCCCCc2cc(-c3ccc(C(F)(F)F)cc3)no2)ccc1CCC(=O)O
The melting point of the first is lower: 103 °C for the first, 105 to 106 °C for the second.

First: COc1cc2c(cc1OC)C(C)(C)Oc1c-2c(OC)cc2oc(C(=O)O)cc(=O)c12
Second: COc1cc2oc(=O)c(CCN3CCC(c4ccccc4)CC3)c(C)c2c(OC)c1OC
The melting point of the first is higher: 263 to 264 °C for the first, 117 to 118 °C for the second.

First: Cc1ccc(S(=O)(=O)n2ccc3c(-c4c(-c5ccc(F)cc5)nc5ccc(Cl)nn45)ccnc32)cc1
Second: Cc1cc(-c2nc3cccnn3c2-c2ccnc(NC(=O)c3cccnc3C)c2)ccc1F
The melting point of the first is lower: 244 to 246 °C for the first, 258 to 259 °C for the second.

First: CC(=O)OC1CCc2c(Nc3ccc(C#N)cc3)ncnc21 (stereo unspecified)
Second: N#CC1CCc2c(C(=O)O)cccc21 (stereo unspecified)
The melting point of the first is higher: 215 to 217 °C for the first, 206 to 208 °C for the second.

First: CCOc1ccc(-c2ccc3c(c2)C=C(C(=O)Nc2ccc(CN(C)C4CCOCC4)cc2)CCN3C=O)cc1F
Second: CC(C(=O)c1ccc(F)cc1F)n1cnc(-c2ccc(OCc3ccccc3)cc2)n1 (stereo unspecified)
The melting point of the first is higher: 193 to 196 °C for the first, 80 to 97 °C for the second.

Compared with `N#Cc1ccc(CCO)nc1`, `N#Cc1ccc(CBr)c([N+](=O)[O-])c1` is lower in melting point: 92 to 93 °C for the first, 85 to 89 °C for the second.

Compared with `CC(C)[Si](Oc1ccc2c(c1)CN(Nc1ccccn1)C2)(C(C)C)C(C)C`, `CC(=O)c1ccccc1NC(C)c1c(Cl)cccc1Cl` (stereo unspecified) is higher in melting point: 95 to 96 °C for the first, 123 °C for the second.

First: O=C(O)c1cc(-n2c(-c3ccccc3)cc3c2CCCC3)cc(Cl)c1O
Second: O=C(O)c1ccc(NC(=O)C(CS)Cc2ccccc2)cc1O (stereo unspecified)
The melting point of the first is higher: 223 to 225 °C for the first, 166 to 170 °C for the second.

First: CC(=O)N1CCc2cc(O)ccc2C1
Second: CCOC(=O)N1N=C(c2ccc(N)cc2)c2cc(Cl)ccc2CC1C (stereo unspecified)
The melting point of the first is higher: 135 to 136 °C for the first, 95 to 98 °C for the second.

First: COC(=O)C(CCCCNC(=O)COCc1ccccc1)NC(=O)COCc1ccccc1 (stereo unspecified)
Second: CCOC(=O)c1cc2c(cn1)[nH]c1ccc([N+](=O)[O-])c(OCc3ccccc3)c12
The melting point of the first is lower: 62 to 65 °C for the first, 254 °C for the second.

Compared with `C#CCOc1ccc(C2=NC3=CCNC(=O)C3=N2)c(OC)c1`, `COc1ccc2cc3c(c(-c4ccc(C)cc4)c2c1)CNC3=O` is higher in melting point: 178 to 180 °C for the first, 298 to 301 °C for the second.

First: Nc1c(Br)cc(-c2nc3ccccc3s2)cc1Br
Second: CCCCc1c(-c2cc(C)c(OC)c(C)c2)[nH]c2ccccc12
The melting point of the first is higher: 201 to 203 °C for the first, 76.8 to 77.7 °C for the second.

Compared with `COc1ccc(N2CCN(c3c(C)c(C)c4c(c3C)C(O)(c3ccc(C)cc3)C(C)(C)O4)CC2)cc1` (stereo unspecified), `Cc1ccsc1C(=O)c1sc(Nc2ccc(N3CCN(C)CC3)cc2)nc1N` is higher in melting point: 145 to 147 °C for the first, 237 to 238 °C for the second.

First: Cc1cc(OCc2ccc(-c3ccccc3-c3nnn(C(c4ccccc4)(c4ccccc4)c4ccccc4)n3)cc2)c(CO)c(C)n1
Second: CS(=O)(=O)Nc1ccc(Cc2n[nH]c3c2c(=O)n(-c2ccccc2)c2ncccc32)cc1
The melting point of the first is lower: 68 to 70 °C for the first, 306 to 307 °C for the second.

Compared with `CC(=O)SC(CC(=O)c1ccc(C(C)C)cc1)C(=O)O` (stereo unspecified), `O=C(O)C=C(Oc1ccc(OC(F)(F)F)cc1)C(=O)O` is higher in melting point: 84 to 86 °C for the first, 208 to 210 °C for the second.

Compared with `CC(C)(C)NS(=O)(=O)c1ccccc1CCCl`, `CC(C)(C)NCC(O)COc1ccc(F)cc1-c1ccc(=S)[nH]n1` (stereo unspecified) is higher in melting point: 64 to 65 °C for the first, 170 to 173 °C for the second.

`O=C1c2cccnc2N(N2CCCCC2)C2=NCCN12` and `NC(=O)C(Nc1ncccc1[N+](=O)[O-])c1c(Cl)cccc1Cl` (stereo unspecified) cannot be ordered by melting point: 206 to 207 °C for the first, 207 °C for the second.

Compared with `CNCc1coc(-c2cccc(C3=Nc4ccc(-n5cccc5)cc4NC(=O)C3)c2)n1`, `COC=C(C(=O)OC)n1ccc2ccc(-c3csc(-c4ccc(C)cc4)n3)cc21` is lower in melting point: 182 to 183 °C for the first, 145 to 146 °C for the second.

First: COC(=O)c1ccc(OCC2COC(=O)N2c2ccc(Cl)cc2)cc1 (stereo unspecified)
Second: O=C1NC(=O)C(Cc2ccc(OCCON=Cc3cccnc3)cc2)S1 (stereo unspecified)
The melting point of the first is lower: 135 to 136 °C for the first, 155 to 157 °C for the second.

First: O=C(O)c1ccc2c(c1-c1c(C(=O)O)ccc3c1OCO3)OCO2
Second: Nc1nc(Nc2ccc(S(N)(=O)=O)cc2)sc1C(=O)c1ccc(C(=O)Oc2ccccc2)cc1
The melting point of the first is lower: 253 to 255 °C for the first, over 300 °C for the second.

Compared with `CCn1nc2c(N)nc3c(c2c1CC(C)C)CCCC3`, `Cc1ncc(CNC(=O)c2sc(-n3cnn(Cc4ccc(F)cc4)c3=O)nc2C)s1` is lower in melting point: 206 to 207 °C for the first, 176 to 177 °C for the second.

First: Fc1cccc2nc(S)sc12
Second: N#Cc1cnc2scc(Br)c2c1Br
The melting point of the first is lower: 193 °C for the first, 204 to 206 °C for the second.

With `Cc1cc(CC#N)c(CC#N)cc1C` the melting point was 103 to 104 °C.
